Entries after “also recorded” stand apart in the source; their conditions may differ.
Assays:
human subjects [1] = assay: Initial human study, two male subjects ingesting aegeline for 12-18 weeks, reported effects; assay type: in vivo; details: for libido: male volunteers
human subjects [2] = assay: Human study, six adult males ingesting 200-800 mg aegeline per day: effects reported by subjects; assay type: in vivo
Description: In a separate study, the compound aegeline was orally administered to six human subjects. The volunteer subjects were all non-smoking males between the ages of 24-36.

COc1ccc(C(O)CNC(=O)/C=C/c2ccccc2)cc1 (stereo not shown) [aegeline, N-[2-hydroxy-2(4-methoxyphenyl)ethyl]-3-phenyl-2-propenamide]
effect on thermogenesis (human subjects [1]; daily dose of 80 mg): without a very noticeable effect; also recorded: not very noticeable
mental stamina, focus, and mood (human subjects [1]; daily dose of 80 mg): effective to increase or improve
duration of effects on mental stamina, focus, and mood after effect onset (human subjects [1]; daily dose of 120 mg): 8 to 10 h
mental stamina, focus, and mood (human subjects [1]; daily dose of 120 mg): further increased or improved
thermogenic effect (human subjects [1]; daily dose of 120 mg): noticeable but not very apparent; also recorded: noticeable
mental stamina, focus, energy level, mood and thermogenesis (human subjects [1]; dose increase to 150-180 mg): further enhanced or increased
libido (human subjects [1]; daily dose of 150 mg): increased libido; also recorded: effective to increase libido
libido (human subjects [1]; daily doses lower than 150 mg): not at the lower daily doses
reported effects (human subjects [1]; two male subjects, 20-60 mg per day): no immediate apparent effects
mental stamina, focus and concentration, energy level, and mood (human subjects [1]; two male subjects, 80-150 mg per day): increased or improved
anabolic effects (human subjects [2]; 200 mg per day): became apparent after extended use
thermogenic effect (human subjects [2]; 200 mg per day): very apparent
time of daily administration until anabolic effects became apparent (human subjects [2]; 200 mg per day): around 7 days
libido (human subjects [2]; 400 mg per day): very apparent and prolonged increase
effect on libido (human subjects [2]; daily dose of 200 mg): further increased
effects on mental stamina, energy level, focus, and mood (human subjects [2]; daily dose of 200 mg): very apparent
anabolic effects (human subjects [2]; daily dose of 400 mg): immediately apparent
dose-dependency of effects on mental stamina, energy level, focus, and mood (human subjects [2]; doses above 400 mg per day): not readily observed
physical performance for exercise and strength training activities (human subjects [2]; one subject, daily dose of 800 mg): improved physical performance

From patent US20140134283A1, “Compositions and Methods for Affecting Mental State and Body Composition” (USPLABS. LLC, priority 2012, published 2014)
